{
  "source": "patent US20200085058A1",
  "about": "“SELECTIVE HERBICIDES BASED ON SUBSTITUTED THIEN-3-YL-SULPHONYLAMINO(THIO)CARBONYLTRIAZOLIN(THI)ONES AND SAFENERS” (Bayer CropScience Aktiengesellschaft, priority 2001, published 2020)",
  "type_in_all_cases": "in vivo",
  "key": {"winter barley [1]": {"system": "winter barley", "test": "Example A-2 post-emergence test/greenhouse, crop damage, 0.5% Renex-36", "method": "(§1) The active compound or safener components are in each case dissolved in a few ml (generally 2-3 ml) of solvent (generally acetone or N,N-dimethyl-formamide), and the solutions are combined and then—if appropriate after addition of an emulsifier—diluted with water to the desired concentration. In general, an aqueous spray liquor was prepared using 0.1% of the additive Renex-36.\n(§2) The test plants are grown under controlled conditions (temperature, light, atmospheric humidity) in a greenhouse. The test plants are sprayed when they have reached a height of 5-15 cm. The concentration of the spray liquor is chosen such that the particular amounts of active compound desired are applied in 500 l of water/ha.\n(§3) After spraying, the pots with the test plants are kept in a greenhouse chamber under controlled conditions (temperature, light, atmospheric humidity) until the test has ended. About three weeks after the application, the degree of damage to the crop plants is rated in % damage in comparison to the development of the untreated control.\n(§4) The figures denote: • 0%=no damage (like untreated control) • 100%=total destruction/damage\nHere, an aqueous spray liquor comprising 0.5% of the additive Renex-36 was prepared."}, "[2]": {"system": "maize of the cultivar \"Prinz\"", "test": "Example A-3 post-emergence test/greenhouse, crop damage, Maize 1", "conditions": "7 days after the application, Table A-3-1", "method": "as §1, §2\n(§5) After spraying, the pots with the test plants are kept in a greenhouse chamber under controlled conditions (temperature, light, atmospheric humidity) until the test has ended. […]\nas §4\n(§6) The compound I-2 was used as 10 WP. In each case, Marlipal® was added in an amount of 500 ml/ha.\n(§7) Evaluation was carried out as early as 7 days after the application. • Maize 1=maize of the cultivar “Prinz” • Maize 2=maize of the cultivar “Pioneer” • Maize 3=maize of the cultivar “LIXIS”"}, "maize cv. \"Pioneer\"": {"system": "maize cv. \"Pioneer\"", "test": "Example A post-emergence test/greenhouse, crop damage, 0.1% Renex-36", "conditions": "10 g of a.i./ha; Table A1; about three weeks after application", "method": "The active compound or safener components are in each case dissolved in a few ml (generally 2-3 ml) of solvent (generally acetone or N,N-dimethyl-formamide), and the solutions are combined and then—if appropriate after addition of an emulsifier—diluted with water to the desired concentration. […] The test plants are grown under controlled conditions (temperature, light, atmospheric humidity) in a greenhouse. […] The concentration of the spray liquor is chosen such that the particular amounts of active compound desired are applied in 500 l of water/ha. After spraying, the pots with the test plants are kept in a greenhouse chamber under controlled conditions (temperature, light, atmospheric humidity) until the test has ended. About three weeks after the application, the degree of damage to the crop plants is rated in % damage in comparison to the development of the untreated control. […] Active compounds, application rates, test plants and results are shown in the tables below, the terms being used in the tables being as defined below: • maize=maize cv. “Pioneer” • a.i.=active ingredient=active compound/safener"}, "[3]": {"system": "maize of the cultivar \"LIXIS\"", "test": "Example A-3 post-emergence test/greenhouse, crop damage, Maize 3", "conditions": "7 days after the application, Table A-3-3", "method": "as §1, §2, §5, §4, §6, §7"}, "[4]": {"system": "maize of the cultivar \"Pioneer\"", "test": "Example A-3 post-emergence test/greenhouse, crop damage, Maize 2", "conditions": "7 days after the application, Table A-3-2", "method": "as §1, §2, §5, §4, §6, §7"}, "winter wheat [5]": {"system": "winter wheat", "test": "Example A-5 post-emergence test/greenhouse, crop damage", "method": "as §1, §2, §3, §4\n(§8) Mefenpyr-diethyl was used as 100 EC and the compound of Ex. No. I-2 was used as 10 WP."}, "winter barley [6]": {"system": "winter barley", "test": "Example A-5 post-emergence test/greenhouse, crop damage", "method": "as §1, §2, §3, §4, §8"}, "winter barley [7]": {"system": "winter barley", "test": "Example A-4 post-emergence test/greenhouse, crop damage", "conditions": "safener alone 50 g of a.i./ha; Table A-4-4", "method": "as §1, §2, §3, §4\n(§9) Mefenpyr-diethyl was used as 100 EC.\n(§10) The compounds of Ex. Nos. I-2 and I-13 were used as 10 WP."}, "winter wheat [8]": {"system": "winter wheat", "test": "Example A-4 post-emergence test/greenhouse, crop damage", "conditions": "safener alone 50 g of a.i./ha; Table A-4-1", "method": "as §1, §2, §3, §4, §9, §10"}},
  "data": [
    {"smiles": "COCC(=O)Nc1ccc(S(=O)(=O)NC(=O)c2ccccc2OC)cc1", "note": "[Comp. No. IId-25]", "values": [
      {"measurement": "Damage winter barley (in %)", "setting": "winter barley [1]; safener alone 30 g of a.i./ha, Table A-2-2", "result": 0, "unit": "%"},
      {"measurement": "Damage winter barley (in %)", "setting": "winter barley [1]; safener alone 100 g of a.i./ha, Table A-2-2", "result": 0, "unit": "%"}
    ]},
    {"smiles": "COC(=O)c1csc(C)c1S(=O)(=O)[N-]C(=O)n1nc(OC)n(C)c1=O.[Na+]", "note": "[I-2, sodium salt]", "values": [
      {"measurement": "Damage winter barley (in %)", "setting": "winter barley [1]; 2 g of a.i./ha, Table A-2-1", "result": 50, "unit": "%"},
      {"measurement": "Damage winter barley (in %)", "setting": "winter barley [1]; 4 g of a.i./ha, Table A-2-1", "result": 60, "unit": "%"}
    ]},
    {"smiles": "COC(=O)c1csc(C)c1S(=O)(=O)NC(=O)n1nc(OC)n(C)c1=O", "note": "[I-2]", "values": [
      {"measurement": "Damage Maize 1 (in %)", "setting": "[2]; 8 g of a.i./ha", "result": 10, "unit": "%"},
      {"measurement": "Damage Maize 1 (in %)", "setting": "[2]; 15 g of a.i./ha", "result": 20, "unit": "%"},
      {"measurement": "Damage maize (in %)", "setting": "maize cv. \"Pioneer\"", "result": 35, "unit": "%"},
      {"measurement": "Damage Maize 3 (in %)", "setting": "[3]; 8 g of a.i./ha", "result": 20, "unit": "%"},
      {"measurement": "Damage Maize 3 (in %)", "setting": "[3]; 15 g of a.i./ha", "result": 40, "unit": "%"},
      {"measurement": "Damage maize 2 (in %)", "setting": "[4]; 8 g of a.i./ha", "result": 10, "unit": "%"},
      {"measurement": "Damage maize 2 (in %)", "setting": "[4]; 15 g of a.i./ha", "result": 20, "unit": "%"}
    ]},
    {"smiles": "CCOC(=O)c1csc(C)c1S(=O)(=O)NC(=O)n1nc(OC)n(C)c1=O", "note": "[I-13]", "values": [
      {"measurement": "Damage winter wheat (in %)", "setting": "winter wheat [5]; in vivo", "result": 50, "unit": "%"}
    ]},
    {"smiles": "CCOn1c(CC)nn(C(=O)NS(=O)(=O)c2c(C(=O)OC)csc2C)c1=O", "note": "[I-17]", "values": [
      {"measurement": "Damage winter barley (in %)", "setting": "winter barley [6]; 8 g of a.i./ha, Table A-5-13", "result": 70, "unit": "%"},
      {"measurement": "Damage winter barley (in %)", "setting": "winter barley [6]; 15 g of a.i./ha, Table A-5-13", "result": 70, "unit": "%"},
      {"measurement": "Damage winter barley (in %)", "setting": "winter barley [6]; 30 g of a.i./ha, Table A-5-13", "result": 80, "unit": "%"},
      {"measurement": "Damage winter wheat (in %)", "setting": "winter wheat [5]; 8 g of a.i./ha, Table A-5-7", "result": 40, "unit": "%"},
      {"measurement": "Damage winter wheat (in %)", "setting": "winter wheat [5]; 15 g of a.i./ha, Table A-5-7", "result": 50, "unit": "%"},
      {"measurement": "Damage winter wheat (in %)", "setting": "winter wheat [5]; 30 g of a.i./ha, Table A-5-7", "result": 70, "unit": "%"}
    ]},
    {"smiles": "CCOC(=O)C1=NN(c2ccc(Cl)cc2Cl)C(C)(C(=O)OCC)C1", "note": "(centres unmarked) [mefenpyr-diethyl, diethyl 1-(2,4-dichloro-phenyl)-4,5-dihydro-5-methyl-1H-pyrazole-3,5-dicarboxylate, reference compound]", "values": [
      {"measurement": "Damage winter barley (in %)", "setting": "winter barley [7]", "result": 0, "unit": "%"},
      {"measurement": "Damage winter wheat (in %)", "setting": "winter wheat [8]", "result": 0, "unit": "%"},
      {"measurement": "Damage winter barley (in %)", "setting": "winter barley [6]; safener alone 50 g of a.i./ha, Table A-5-11", "result": 0, "unit": "%"},
      {"measurement": "Damage winter wheat (in %)", "setting": "winter wheat [5]; safener alone 50 g of a.i./ha, Table A-5-1", "result": 0, "unit": "%"},
      {"measurement": "Damage winter wheat (in %)", "setting": "winter wheat [5]; safener alone 50 g of a.i./ha, Table A-5-2", "result": 0, "unit": "%"},
      {"measurement": "Damage winter wheat (in %)", "setting": "winter wheat [5]; safener alone 50 g of a.i./ha, Table A-5-3", "result": 0, "unit": "%"},
      {"measurement": "Damage winter wheat (in %)", "setting": "winter wheat [5]; safener alone 50 g of a.i./ha, Table A-5-4", "result": 0, "unit": "%"},
      {"measurement": "Damage winter wheat (in %)", "setting": "winter wheat [5]; safener alone 50 g of a.i./ha, Table A-5-5", "result": 0, "unit": "%"}
    ]}
  ]
}
